Data taken from patent US20140065103A1 (VERTEX PHARMACEUTICALS INCORPORATED, priority 2010, published 2014).

What was measured:
[1] = tested on: HCV sub-genomic replicon of genotype 1a in replicon cell line W11.8; assay: microbe, parasite or virus in culture; assay type: cell-based, Hepatitis C virus; settings: Hepatitis C virus, W11.8, 96 h, read-out: HCV-Replicon-ELISA-1a IC50
[2] = [3H]Thymidine incorporation assay (cytotoxicity, CC50); settings: human

For Cn1cncc1CN(c1cc(C#CC(C)(C)C)sc1C(=O)O)C(=O)[C@H]1CC[C@H](C)CC1 [Compound 66, 5-(3,3-Dimethylbut-1-ynyl)-3-((trans)-4-methyl-N-((1-methyl-1H-imidazol-5-yl)methyl)cyclohexanecarboxamido)thiophene-2-carboxylic acid], which IC50 [1] is on record?
The IC50 was less than 0.1 µM.

And the CC50 at 72 h [2]?
The CC50 at 72 h was greater than 100 µM.

What does the source list for CC(C)(C)C#Cc1cc(N(C(=O)[C@H]2CC[C@H](C)CC2)C2CC=C(F)CC2)c(C(=O)O)s1 (relative stereo) [Compound 15, 5-(3,3-Dimethyl-but-1-ynyl)-3-[(4-fluoro-cyclohex-3-enyl)-(trans-4-methyl-cyclohexanecarbonyl)-amino]-thiophene-2-carboxylic acid]?
IC50 [1]: < 0.1 µM; CC50 at 72 h [2]: 10 to 100 µM

For Cn1cc(CN(c2cc(C#CC(C)(C)C)sc2C(=O)O)C(=O)[C@H]2CC[C@H](C)CC2)cn1 [Compound 67, 5-(3,3-Dimethylbut-1-ynyl)-3-((trans)-4-methyl-N-((1-methyl-1H-pyrazol-4-yl)methyl)cyclohexanecarboxamido)thiophene-2-carboxylic acid], which IC50 [1] is on record?
Its IC50 is 0.1 to 1 µM.

What about the CC50 at 72 h [2] of the same molecule?
Its CC50 at 72 h is greater than 100 µM.

With Cc1ccc(C(=O)N(c2cc(C#CC(C)(C)C)sc2C(=O)O)[C@H]2CC[C@H](O)CC2)cc1 [Compound 86, 5-(3,3-Dimethyl-but-1-ynyl)-3-[(trans-4-hydroxy-cyclohexyl)-(4-methyl-benzoyl)-amino]-thiophene-2-carboxylic acid] as the molecule, how does the IC50 [1] read?
Its IC50 is less than 0.1 µM.

What about the CC50 at 72 h [2] of the same molecule?
The CC50 at 72 h was 10 to 100 µM.

For CC(CN1CCOCC1)N(c1cc(C#CC(C)(C)C)sc1C(=O)O)C(=O)[C@H]1CC[C@H](C)CC1 (relative stereo) [Compound 72, 5-(3,3-Dimethylbut-1-yn-1-yl)-3-(trans-4-methyl-N-(1-morpholinopropan-2-yl)cyclohexanecarboxamido)thiophene-2-carboxylic acid], which IC50 [1] is on record?
Its IC50 is less than 0.1 µM.

And the CC50 at 72 h [2]?
Its CC50 at 72 h is 10 to 100 µM.

With CC(C)(C)C#Cc1cc(N(C(=O)c2ccc(F)cc2)[C@H]2CC[C@H](O)CC2)c(C(=O)O)s1 [Compound 92, 5-(3,3-Dimethyl-but-1-ynyl)-3-[(4-fluoro-benzoyl)-(trans-4-hydroxy-cyclohexyl)-amino]-thiophene-2-carboxylic acid] as the molecule, how does the IC50 [1] read?
Its IC50 is 1 to 10 µM.

Which IC50 [1] does the source give for COC(C)(C)C#Cc1cc(N(C(=O)[C@H]2CC[C@H](C)CC2)C(C)C)c(C(=O)O)s1 [Compound 22, 3-[Isopropyl-(trans-4-methyl-cyclohexanecarbonyl)-amino]-5-(3-methoxy-3-methyl-but-1-ynyl)-thiophene-2-carboxylic acid] here?
The IC50 was 0.1 to 1 µM.

And the CC50 at 72 h [2]?
The CC50 at 72 h was 10 to 100 µM.

Which IC50 [1] does the source give for CC(C)(C)C#Cc1cc(N(Cc2cccnc2)C(=O)[C@H]2CC[C@H](C)CC2)c(C(=O)O)s1 [Compound 1] here?
Its IC50 is less than 0.1 µM.

What about the CC50 at 72 h [2] of the same molecule?
The CC50 at 72 h was 10 to 100 µM.

For CC(C)(C)C#Cc1cc(N(C(=O)c2ccc(Cl)c(F)c2)[C@H]2CC[C@H](O)CC2)c(C(=O)O)s1 [Compound 94, 3-[(4-Chloro-3-fluoro-benzoyl)-(trans-4-hydroxy-cyclohexyl)-amino]-5-(3,3-dimethyl-but-1-ynyl)-thiophene-2-carboxylic acid], which IC50 [1] is on record?
The IC50 was 0.1 to 1 µM.

With CC(C)N(c1cc(C#CC2CCCCC2)sc1C(=O)O)C(=O)[C@H]1CC[C@H](C)CC1 [Compound 18, 5-Cyclohexylethynyl-3-[isopropyl-(trans-4-methyl-cyclohexanecarbonyl)-amino]-thiophene-2-carboxylic acid] as the molecule, how does the IC50 [1] read?
Its IC50 is 1 to 10 µM.

What about the CC50 at 72 h [2] of the same molecule?
Its CC50 at 72 h is 10 to 100 µM.

Which CC50 at 72 h [2] does the source give for Cc1nnc(CN(c2cc(C#CC(C)(C)C)sc2C(=O)O)C(=O)[C@H]2CC[C@H](C)CC2)o1 [Compound 24, 5-(3,3-Dimethyl-but-1-ynyl)-3-[(trans-4-methyl-cyclohexanecarbonyl)-(5-methyl-[1,3,4]oxadiazol-2-ylmethyl)-amino]-thiophene-2-carboxylic acid] here?
The CC50 at 72 h was less than 10 µM.

Which IC50 [1] does the source give for CC(C)(C)C#Cc1cc(N(C(=O)c2ccc(Cl)cc2)[C@H]2CC[C@H](O)CC2)c(C(=O)O)s1 [Compound 81, 3-[(4-Chloro-benzoyl)-(trans-4-hydroxy-cyclohexyl)-amino]-5-(3,3-dimethyl-but-1-ynyl)-thiophene-2-carboxylic acid] here?
The IC50 was 0.1 to 1 µM.

For Cc1ccc(C(=O)N(c2cc(C#CC(C)(C)C)sc2C(=O)O)[C@H]2CC[C@H](O)CC2)c(F)c1 [Compound 85, 5-(3,3-Dimethyl-but-1-ynyl)-3-[(2-fluoro-4-methyl-benzoyl)-(trans-4-hydroxy-cyclohexyl)-amino]thiophene-2-carboxylic acid], which IC50 [1] is on record?
Its IC50 is less than 0.1 µM.

And the CC50 at 72 h [2]?
The CC50 at 72 h was 10 to 100 µM.

What does the source list for CC(C)N(c1cc(C#CC2CC2)sc1C(=O)O)C(=O)[C@H]1CC[C@H](C)CC1 [Compound 20, 5-Cyclopropylethynyl-3-[isopropyl-(trans-4-methyl-cyclohexanecarbonyl)-amino]-thiophene-2-carboxylic acid]?
IC50 [1]: 0.1 to 1 µM; CC50 at 72 h [2]: 10 to 100 µM

For Cc1ccc(C(=O)N(c2cc(C#CC(C)(C)C)sc2C(=O)O)[C@H]2CC[C@H](O)CC2)c(F)c1F [Compound 89, 3-[(2,3-Difluoro-4-methyl-benzoyl)-(trans-4-hydroxy-cyclohexyl)-amino]-5-(3,3-dimethyl-but-1-ynyl)-thiophene-2-carboxylic acid], which IC50 [1] is on record?
The IC50 was less than 0.1 µM.

With Cc1ccccc1C(=O)N(c1cc(C#CC(C)(C)C)sc1C(=O)O)[C@H]1CC[C@H](O)CC1 [Compound 88, 5-(3,3-Dimethyl-but-1-ynyl)-3-[(trans-4-hydroxy-cyclohexyl)-(2-methyl-benzoyl)-amino]-thiophene-2-carboxylic acid] as the molecule, how does the IC50 [1] read?
Its IC50 is 0.1 to 1 µM.

What does the source list for CC(C)(C)C#Cc1cc(N(C(=O)[C@H]2CC[C@H](C)CC2)[C@H]2CCNC2)c(C(=O)O)s1 [Compound 57, 5-(3,3-Dimethylbut-1-yn-1-yl)-3-((trans)-4-methyl-N-((S)-pyrrolidin-3-yl)cyclohexanecarboxamido)thiophene-2-carboxylic acid]?
IC50 [1]: < 0.1 µM; CC50 at 72 h [2]: > 100 µM

With CC(C)N(c1cc(C#CC(F)(F)F)sc1C(=O)O)C(=O)[C@H]1CC[C@H](C)CC1 [Compound 23, 3-[Isopropyl-(trans-4-methyl-cyclohexanecarbonyl)-amino]-5-trifluoroprop-1-ynyl-thiophene-2-carboxylic acid] as the molecule, how does the IC50 [1] read?
The IC50 was 0.1 to 1 µM.

And the CC50 at 72 h [2]?
The CC50 at 72 h was 10 to 100 µM.

For Cn1nccc1CN(c1cc(C#CC(C)(C)C)sc1C(=O)O)C(=O)[C@H]1CC[C@H](C)CC1 [Compound 77, 5-(3,3-Dimethylbut-1-ynyl)-3-((trans)-4-methyl-N-((1-methyl-1H-pyrazol-5-yl)methyl)cyclohexanecarboxamido)thiophene-2-carboxylic acid], which IC50 [1] is on record?
The IC50 was less than 0.1 µM.

What about the CC50 at 72 h [2] of the same molecule?
The CC50 at 72 h was greater than 100 µM.

For CC(C)N(c1cc(C#Cc2ccccc2)sc1C(=O)O)C(=O)[C@H]1CC[C@H](C)CC1 [Compound 21, 3-[Isopropyl-(trans-4-methyl-cyclohexanecarbonyl)-amino]-5-phenylethynyl-thiophene-2-carboxylic acid], which IC50 [1] is on record?
Its IC50 is 1 to 10 µM.

What about the CC50 at 72 h [2] of the same molecule?
The CC50 at 72 h was 10 to 100 µM.

What does the source list for C=CCO[C@H]1CC[C@H](N(c2cc(C#CC(C)(C)C)sc2C(=O)O)C(=O)[C@H]2CC[C@H](C)CC2)CC1 [Compound 12, 3-[(trans-4-Allyloxy-cyclohexyl)-(trans-4-methyl-cyclohexanecarbonyl)-amino]-5-(3,3-dimethyl-but-1-ynyl)-thiophene-2-carboxylic acid]?
IC50 [1]: < 0.1 µM; CC50 at 72 h [2]: 10 to 100 µM

Which results are given for Cn1ccc(CN(c2cc(C#CC(C)(C)C)sc2C(=O)O)C(=O)[C@H]2CC[C@H](C)CC2)n1 [Compound 71, 5-(3,3-Dimethylbut-1-ynyl)-3-((trans)-4-methyl-N-((1-methyl-1H-pyrazol-3-yl)methyl)cyclohexanecarboxamido)thiophene-2-carboxylic acid]?
IC50 [1]: < 0.1 µM; CC50 at 72 h [2]: 10 to 100 µM

What does the source list for CC(C)(C)C#Cc1cc(N(C(=O)[C@H]2CC[C@H](C)CC2)C2CC2)c(C(=O)O)s1 [Compound 16, 3-[Cyclopropyl-(trans-4-methyl-cyclohexanecarbonyl)-amino]-5-(3,3-dimethyl-but-1-ynyl)-thiophene-2-carboxylic acid]?
IC50 [1]: 0.1 to 1 µM; CC50 at 72 h [2]: 10 to 100 µM

What does the source list for CN(C)C(=O)[C@H]1C[C@@H](N(c2cc(C#CC(C)(C)C)sc2C(=O)O)C(=O)[C@H]2CC[C@H](C)CC2)C1 [Compound 11, 5-(3,3-dimethylbut-1-yn-1-yl)-3-(trans-4-methyl-N-(cis-3-(dimethylcarbamoyl)cyclobutyl)cyclohexanecarboxamido)thiophene-2-carboxylic acid]?
IC50 [1]: < 0.1 µM; CC50 at 72 h [2]: 10 to 100 µM

Which IC50 [1] does the source give for CC(C)(C)C#Cc1cc(N(C(=O)c2ccccc2Cl)[C@H]2CC[C@H](O)CC2)c(C(=O)O)s1 [Compound 87, 3-[(2-Chloro-benzoyl)-(trans-4-hydroxy-cyclohexyl)-amino]-5-(3,3-dimethyl-but-1-ynyl)-thiophene-2-carboxylic acid] here?
Its IC50 is 1 to 10 µM.

What does the source list for CC(C)(C)C#Cc1cc(N(C(=O)[C@H]2CC[C@H](C)CC2)C2CCC(F)(F)CC2)c(C(=O)O)s1 [Compound 14, 3-[(4,4-Difluoro-cyclohexyl)-(trans-4-methyl-cyclohexanecarbonyl)-amino]-5-(3,3-dimethyl-but-1-ynyl)-thiophene-2-carboxylic acid]?
IC50 [1]: < 0.1 µM; CC50 at 72 h [2]: 10 to 100 µM

With Cc1ccc(C(=O)N(c2cc(C#CC(C)(C)C)sc2C(=O)O)[C@H]2CC[C@H](O)CC2)c(Cl)c1 [Compound 84, 3-[(2-Chloro-4-methyl-benzoyl)-(trans-4-hydroxy-cyclohexyl)-amino]-5-(3,3-dimethyl-but-1-ynyl)-thiophene-2-carboxylic acid] as the molecule, how does the IC50 [1] read?
Its IC50 is less than 0.1 µM.

For CC(C)(C)C#Cc1cc(N(CCN2CCOCC2)C(=O)[C@H]2CC[C@H](C)CC2)c(C(=O)O)s1 [Compound 48, 5-(3,3-Dimethylbut-1-yn-1-yl)-3-(trans-4-methyl-N-(2-morpholinoethyl)cyclohexanecarboxamido)thiophene-2-carboxylic acid], which IC50 [1] is on record?
Its IC50 is less than 0.1 µM.

What about the CC50 at 72 h [2] of the same molecule?
Its CC50 at 72 h is 10 to 100 µM.

What does the source list for CC(C)(C)C#Cc1cc(N(C(=O)[C@H]2CC[C@H](C)CC2)[C@@H]2CCNC2)c(C(=O)O)s1 [Compound 58, 5-(3,3-Dimethylbut-1-yn-1-yl)-3-((trans)-4-methyl-N—((R)-pyrrolidin-3-yl)cyclohexanecarboxamido)thiophene-2-carboxylic acid]?
IC50 [1]: < 0.1 µM; CC50 at 72 h [2]: > 100 µM
